The assay deals with T1, HDAC1 (Homo sapiens, UniProt Q13547).
T1 construct: purchased Cayman Chemicals
Briefly: HDAC1 IC50 (Trypsin-coupled assay and Caliper endpoint assay). The conditions noted are these: competitive inhibition with a peptide substrate. Format: biochemical. The method, then: HP-1 and HP-2 IC50 values for HDAC1 were determined using the Trypsin-coupled assay as well as the Caliper endpoint assay. HP-1 and HP-2 IC50 values for HDAC2, HDAC3, HDAC6 and HDAC8 were determined with the Caliper endpoint assay.
In vitro HDAC 1 end point enzymatic assays were performed in optimized 96-well format as previously described^3,4 with the following modifications. Reactions were performed in volume of 120 uL with 30 ng of full-length, recombinant HDAC1 (BPS Biosciences). TCEP was excluded from the assay buffer. HDAC1 was pre-incubated with varying concentrations of HP-1 or HP-2, or DMSO vehicle for 30 minutes. Fluorophore-conjugated acetyl-lysine tripeptide substrate was added at a concentration equivalent to the substrate Km, 11 uM, and the deacetylation reaction was allowed to run for 45 minutes at RT. […] Fluorescence intensity of the aminomethylcoumarin liberated by deacetylase and trypsin enzymatic activity was monitored at 460 nm using a multilabel plate reader (EnVision, Perkin-Elmer) every 5 minutes until stable, about 25 minutes. […]
IC50 measurements. HP-1 and HP-2 IC50 values for HDAC1 were determined using the Trypsin-coupled assay as well as the Caliper endpoint assay. HP-1 and HP-2 IC50 values for HDAC2, HDAC3, HDAC6 and HDAC8 were determined with the Caliper endpoint assay (full experimental details in Example 1).

T1 sequence (Q13547 whole entry): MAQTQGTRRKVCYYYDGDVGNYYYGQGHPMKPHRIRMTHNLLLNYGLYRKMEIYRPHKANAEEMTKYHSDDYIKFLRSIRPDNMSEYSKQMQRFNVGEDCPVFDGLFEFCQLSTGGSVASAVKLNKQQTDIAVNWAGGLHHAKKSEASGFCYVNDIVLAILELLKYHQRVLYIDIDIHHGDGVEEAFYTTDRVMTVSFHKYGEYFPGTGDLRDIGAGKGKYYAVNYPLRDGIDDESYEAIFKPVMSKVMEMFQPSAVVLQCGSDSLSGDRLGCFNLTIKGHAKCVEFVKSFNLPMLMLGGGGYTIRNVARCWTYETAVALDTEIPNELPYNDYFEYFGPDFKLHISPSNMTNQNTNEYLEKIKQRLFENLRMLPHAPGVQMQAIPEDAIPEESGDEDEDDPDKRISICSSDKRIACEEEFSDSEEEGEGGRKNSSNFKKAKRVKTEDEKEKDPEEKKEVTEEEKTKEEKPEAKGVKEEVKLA

Usually IC50 stands for the concentration at which inhibition is half-maximal. Consider `CC(=O)NC=CCCCCNC(=O)CCCCCNc1ccc([N+](=O)[O-])c2nonc12` [HP-1], for which the “inhibition of HDAC1 (in words)” value is on record as “weakly inhibit”. Under “HDAC1, table does not say whether Trypsin-coupled or Caliper assay”, this compound displayed an IC50 of 35.8 µM.

The record behind these values is patent publication US20160138077A1, “MONITORING AND ASSESSING DEACETYLASE ENZYME ACTIVITY” (THE GENERAL HOSPITAL CORPORATION, priority 2013, published 2016).
